Experimental data published in patent US11878045B2, “Inducing cell death by hyperactivation of motility networks” (The Johns Hopkins University, priority 2016, dated 2024).
“Also recorded” adds a separate entry of the source.

Assays:
[1] = tested on: Dictyostelium pten− cells; settings: for cytotoxicity for Dictyostelium pten− cells: 5 μM statin, three day period (17, 41, 65 hours); for time after drug treatment at which cell death started to occur: pten− cells; for growth of pten− cells compared to DMSO control: three day period
Experimental: Cells were treated with 5 μM fluvastatin or DMSO. Images were taken 17 hours (left), 41 hours (middle), and 65 hours (right) after drug treatment.
Seven statins currently available on the market were tested for cytotoxicity on pten− cells. The graph quantifies growth of cells treated with 5 μM of statins or DMSO control over a three day period. Blue, orange, and yellow bars represent relative cell counts 17 hours, 41 hours, and 65 hours after drug treatment.
Statins are inhibitors of HMG-CoA reductase, the rate-controlling enzyme of the mevalonate pathway.

[2] = tested on: Dictyostelium pten− cells; assay: Phenotypic screen of the Johns Hopkins drug library on growth of pten− cells; type: cell-based; settings: hits validated independently with purchased compounds
Excerpt: (§1) FIG. 7 is a diagram showing the process of drug library screen. […] Secondary screen confirmed nine compounds with effects selective for pten− but not wild-type cells.
(§2) The John Hopkins Drug Library contains 2560 drugs that are either FDA approved, have been proven in other countries for treating human diseases, or have entered phase II clinical trials. […] These compounds fell into several classes: certain phenothiazines (promazine, chlorpromazine, and thioridazine), certain antibiotics (polymyxin and chloroxine), certain statins (fluvastatin and pitavastatin), and others (benfluorex and phenazopyridine). All of the hits were validated independently with purchased compounds and repeating the experiments.

wild type cells [3] = assay: Phenotypic screen of the Johns Hopkins drug library, wild-type counter-screen; type: cell-based, Dictyostelium; settings: library screen hits
Excerpt: as §1, §2

wild type cells [4] = assay: Statin growth test on wild type cells; type: cell-based, Dictyostelium
Experimental: Cells were treated with 5 μM fluvastatin or DMSO.

[5] = tested on: MCF10-A harboring oncogenic PIK3CA mutations; assay: Growth of mammary epithelial cells with oncogenic PIK3CA mutations under compound treatment; type: cell-based, human; settings: 5 μM
Experimental: (§3) To test whether the hits from the drug screen targeted human pre-metastatic cells, the growth of the human mammary epithelial cell lines MCF-10A, MCF-10A with homozygous pten deletion (pten−/−), or MCF10-A harboring oncogenic PIK3CA mutations under compound treatment were measured.

pten−/− cells = assay: Add-back experiments (MVA, GGPP, cholesterol) with pitavastatin; type: cell-based, human
[6] = tested on: MCF-10A with homozygous pten deletion (pten−/−); assay: Growth of mammary epithelial cells with homozygous pten deletion under compound treatment; type: cell-based, human; settings: 5 μM
Experimental: (§4) MCF-10A or pten−/− cells were treated with DMSO control or 5 μM pitavastatin. Upper and lower panels show 44 hours and 68 hours after drug treatment.
(§5) Cells were treated with DMSO control or 5 μM drugs. Blue, orange, and yellow bars represent 20 hours, 44 hours, and 68 hours after drug treatment.
as §3

MCF-10A cells = assay: Growth of parental mammary epithelial cells under compound treatment; type: cell-based, human; settings: 5 μM
Experimental: as §4, §5, §3

CC(C)c1c(C(=O)Nc2ccccc2)c(-c2ccccc2)c(-c2ccc(F)cc2)n1CC[C@@H](O)C[C@@H](O)CC(=O)O [atorvastatin]
cytotoxicity for Dictyostelium pten− cells [1]: well tolerated

CC(Cc1cccc(C(F)(F)F)c1)NCCOC(=O)c1ccccc1 (stereo not drawn) [benfluorex]
effect on growth or survival of pten− cells in the library screen [2]: selectively slow down the growth of or kill pten− cells
effect on morphology and growth of wild type cells (wild type cells [3]): little or no effect

Oc1c(Cl)cc(Cl)c2cccnc12 [chloroxine]
effect on growth or survival of pten− cells in the library screen [2]: selectively slow down the growth of or kill pten− cells
effect on morphology and growth of wild type cells (wild type cells [3]): little or no effect

CN(C)CCCN1c2ccccc2Sc2ccc(Cl)cc21 [chlorpromazine]
effect on growth or survival of pten− cells in the library screen [2]: selectively slow down the growth of or kill pten− cells
effect on morphology and growth of wild type cells (wild type cells [3]): little or no effect

CC(C)n1c(/C=C/C(O)CC(O)CC(=O)O)c(-c2ccc(F)cc2)c2ccccc21 (stereo not drawn) [fluvastatin]
effect on growth or survival of pten− cells in the library screen [2]: selectively slow down the growth of or kill pten− cells
cytotoxicity for Dictyostelium pten− cells [1]: high cytotoxicity; also recorded: higher efficacy compared to all other statins
growth and survival of Dictyostelium pten− cells (FIG. 8) ([1]; 5 μM, images 17, 41 and 65 hours after treatment): selectively affected the growth and survival
time after drug treatment at which cell death started to occur [1]: around 40 hours
growth of pten− cells compared to DMSO control [1]: grew much slower
effect on morphology and growth of wild type cells (wild type cells [3]): little or no effect
growth of wild type cells treated with the statins (wild type cells [4]): no significant growth defect

CC[C@H](C)C(=O)O[C@H]1C[C@@H](C)C=C2C=C[C@H](C)[C@H](CC[C@@H]3C[C@@H](O)CC(=O)O3)[C@H]21 [lovastatin]
cytotoxicity for Dictyostelium pten− cells [1]: well tolerated

Nc1ccc(/N=N/c2ccccc2)c(N)n1 [phenazopyridine]
effect on growth or survival of pten− cells in the library screen [2]: selectively slow down the growth of or kill pten− cells
effect on morphology and growth of wild type cells (wild type cells [3]): little or no effect

O=C(O)C[C@H](O)C[C@H](O)/C=C/c1c(C2CC2)nc2ccccc2c1-c1ccc(F)cc1 [pitavastatin]
cell death in PIK3CA knock-in cells [5]: extensive cell death
cell growth of PIK3CA knock-in cells [5]: marked reduction in cell growth
effects of pitavastatin with supplementation of cholesterol (pten−/− cells): not cholesterol
effects of pitavastatin with supplementation of GGPP (pten−/− cells; increasing doses of pitavastatin, with or without GGPP): blocked the toxic effects; also recorded: completely blocked
effects of pitavastatin with supplementation of mevalonic acid (MVA) (pten−/− cells; increasing doses of pitavastatin, with or without MVA): blocked the toxic effects; also recorded: completely blocked
effect on growth or survival of pten− cells in the library screen [2]: selectively slow down the growth of or kill pten− cells
cell growth of MCF-10A pten−/− cells ([6]; 20, 44, 68 hours): selectively inhibited the growth and survival; also recorded: marked reduction in cell growth
cell death in MCF-10A pten−/− cells ([6]; 44 and 68 hours): cell death induced; also recorded: extensive cell death
reduction in cell growth and cell death in parental MCF-10A cells (MCF-10A cells): not MCF-10A cells
cytotoxicity for Dictyostelium pten− cells [1]: high cytotoxicity; also recorded: higher efficacy compared to all other statins
time after drug treatment at which cell death started to occur [1]: around 40 hours
growth of pten− cells compared to DMSO control [1]: grew much slower
effect on morphology and growth of wild type cells (wild type cells [3]): little or no effect
growth of wild type cells treated with the statins (wild type cells [4]): no significant growth defect

CC[C@H](C)C(=O)O[C@H]1C[C@H](O)C=C2C=C[C@H](C)[C@H](CC[C@@H](O)C[C@@H](O)CC(=O)O)[C@H]21 [pravastatin]
cytotoxicity for Dictyostelium pten− cells [1]: well tolerated

CN(C)CCCN1c2ccccc2Sc2ccccc21 [promazine]
effect on growth or survival of pten− cells in the library screen [2]: selectively slow down the growth of or kill pten− cells
effect on morphology and growth of wild type cells (wild type cells [3]): little or no effect

CC(C)c1nc(N(C)S(C)(=O)=O)nc(-c2ccc(F)cc2)c1/C=C/[C@@H](O)C[C@@H](O)CC(=O)O [rosuvastatin]
cytotoxicity for Dictyostelium pten− cells [1]: well tolerated

CSc1ccc2c(c1)N(CCC1CCCCN1C)c1ccccc1S2 (stereo not drawn) [thioridazine]
effect on growth or survival of pten− cells in the library screen [2]: selectively slow down the growth of or kill pten− cells
effect on morphology and growth of wild type cells (wild type cells [3]): little or no effect

polymyxin
effect on growth or survival of pten− cells in the library screen [2]: selectively slow down the growth of or kill pten− cells
effect on morphology and growth of wild type cells (wild type cells [3]): little or no effect
